{
  "source": "patent US4282244A",
  "about": "“Optical isomers of 4-amino-N-(1-cyclohexyl-3-pyrrolidinyl)-N-methylbenzamide” (A. H. Robins Company, Inc., priority 1980, dated 1981)",
  "key": {"[1]": {"assay": "acute toxicity (LD50), mouse", "format": "in vivo", "details": "in vivo, fumarate salt, expressed as free base, read-out: LD50 (95% Confidence Limits)", "experimental": "(§1) The acute toxicities of the ±-racemate, the (+)-isomer and the (-)-isomer were conducted with the fumarate salts and probit analysis (Finney, D. J., Statistical Methods in Biological Assay, Hafner Pub. Co., N.Y., 2nd. Ed., 1964) was employed for the statistical treatment of the mortality data."}, "[2]": {"assay": "acute toxicity (LD50), rat", "format": "in vivo", "details": "in vivo, fumarate salt, expressed as free base, read-out: LD50 (95% Confidence Limits)", "experimental": "as §1"}, "[3]": {"assay": "cataleptic effects (Tedeschi et al.)", "format": "in vivo, rat", "details": "in vivo, rat, expressed as free base; for TD50: footnote c, read-out: Neurotoxic dose level evidenced by seizures in test animals; for NOAEL: fumarate salt", "from_the_text": "(§2) The procedure used for determing cataleptic effects of the fumarate salts was based on that of Tedeschi et al., Arch. Int. Pharmacodyn."}, "[4]": {"tested_on": "Metoclopramide-Induced Catalepsy", "assay": "Effects on Metoclopramide-Induced Catalepsy", "format": "in vivo, rat", "details": "Metoclopramide 40 mg/kg IP, then saline IP after one hour", "experimental": "(§3) (+)-4-Amino-N-(1-cyclohexyl-3-pyrrolidinyl)-N-methylbenzamide is useful in reducing the cataleptic side effects of known therapeutically effective drugs such as chlorpromazine [2-chloro-10-(3-dimethylaminopropyl)phenothiazine] and metoclopramide (N-diethylaminoethyl 2-methoxy-4-amino-5-chlorophenylcarboxamide). The effectiveness is shown in Tables IV and V. In each test the rat was administered a 100% effective cataleptic dose of the test drug followed one hour later by an effective dose of (+)-4-amino-N-(1-cyclohexyl-3-pyrrolidinyl)-N-methylbenzamide."}, "catalepsy": {"tested_on": "catalepsy", "assay": "cataleptic effects (Tedeschi et al.)", "format": "in vivo, rat", "from_the_text": "as §2"}, "[5]": {"tested_on": "Chlorpromazine-Induced Catalepsy", "assay": "Effects on Chlorpromazine-Induced Catalepsy", "format": "in vivo, rat", "details": "Chlorpromazine 4 mg/kg IP, then saline IP after one hour", "experimental": "as §3"}},
  "note": "Counter-ions that a name gives are not always drawn.",
  "data": [
    {"smiles": "CN(C(=O)c1ccc(N)cc1)C1CCN(C2CCCCC2)C1", "note": "(single isomer, unassigned; (-)) [(-)-isomer, (-)-4-Amino-N-(1-cyclohexyl-3-pyrrolidinyl)-N-methyl benzamide Fumarate]", "values": [
      {"measurement": "LD50", "setting": "[1]; ip, I.P.", "value": 103, "unit": "mg/kg"},
      {"measurement": "LD50", "setting": "[1]; po, P.O.", "value": 241, "unit": "mg/kg"},
      {"measurement": "LD50", "setting": "[2]; ip, I.P.", "value": 116, "unit": "mg/kg"},
      {"measurement": "LD50", "setting": "[2]; po, P.O.", "value": 410, "unit": "mg/kg"},
      {"measurement": "TD50", "setting": "[3]; IP", "value": 100, "unit": "mg/kg"}
    ]},
    {"smiles": "CCN(CC)CCNC(=O)c1cc(Cl)c(N)cc1OC", "note": "[Metoclopramide, N-diethylaminoethyl 2-methoxy-4-amino-5-chlorophenylcarboxamide, reference compound]", "values": [
      {"measurement": "Percent of Rats Cataleptic", "setting": "[4]; 0.5 h after initial treatment", "value": 100, "unit": "%"},
      {"measurement": "Percent of Rats Cataleptic", "setting": "[4]; 1.0 h after initial treatment", "value": 100, "unit": "%"},
      {"measurement": "Percent of Rats Cataleptic", "setting": "[4]; 1.5 h after initial treatment", "value": 100, "unit": "%"},
      {"measurement": "Percent of Rats Cataleptic", "setting": "[4]; 2.0 h after initial treatment", "value": 100, "unit": "%"},
      {"measurement": "Percent of Rats Cataleptic", "setting": "[4]; 3.0 h after initial treatment", "value": 100, "unit": "%"},
      {"measurement": "Percent of Rats Cataleptic", "setting": "[4]; 4.0 h after initial treatment", "value": 100, "unit": "%"},
      {"measurement": "Percent of Rats Cataleptic", "setting": "[4]; 5.0 h after initial treatment", "value": 100, "unit": "%"},
      {"measurement": "Percent of Rats Cataleptic", "setting": "[4]; 6.0 h after initial treatment", "value": 100, "unit": "%"}
    ]},
    {"smiles": "CN(C(=O)c1ccc(N)cc1)C1CCN(C2CCCCC2)C1", "note": "(racemic) [± racemate, 4-amino-N-(1-cyclohexyl-3-pyrrolidinyl)-N-methylbenzamide]", "values": [
      {"measurement": "LD50", "setting": "[1]; ip, I.P.", "value": 90.2, "unit": "mg/kg"},
      {"measurement": "LD50", "setting": "[1]; po, P.O.", "value": 181, "unit": "mg/kg"},
      {"measurement": "LD50", "setting": "[2]; ip, I.P.", "value": 111, "unit": "mg/kg"},
      {"measurement": "LD50", "setting": "[2]; po, P.O.", "value": 305, "unit": "mg/kg"},
      {"measurement": "TD50", "setting": "[3]; IP", "value": 100, "unit": "mg/kg"},
      {"measurement": "NOAEL", "setting": "[3]; IP", "value": 100, "unit": "mg/kg"},
      {"measurement": "NOAEL", "setting": "[3]; PO", "value": 200, "unit": "mg/kg"},
      {"measurement": "cataleptic properties", "setting": "catalepsy", "value": "notable absence of cataleptic properties"}
    ]},
    {"smiles": "CN(C)CCCN1c2ccccc2Sc2ccc(Cl)cc21", "note": "[Chlorpromazine, 2-chloro-10-(3-dimethylaminopropyl)phenothiazine, reference compound]", "values": [
      {"measurement": "Percent of Rats Cataleptic", "setting": "[5]; 0.5 h after initial treatment", "value": 100, "unit": "%"},
      {"measurement": "Percent of Rats Cataleptic", "setting": "[5]; 1.0 h after initial treatment", "value": 100, "unit": "%"},
      {"measurement": "Percent of Rats Cataleptic", "setting": "[5]; 1.5 h after initial treatment", "value": 100, "unit": "%"},
      {"measurement": "Percent of Rats Cataleptic", "setting": "[5]; 2.0 h after initial treatment", "value": 100, "unit": "%"},
      {"measurement": "Percent of Rats Cataleptic", "setting": "[5]; 3.0 h after initial treatment", "value": 100, "unit": "%"},
      {"measurement": "Percent of Rats Cataleptic", "setting": "[5]; 4.0 h after initial treatment", "value": 100, "unit": "%"},
      {"measurement": "Percent of Rats Cataleptic", "setting": "[5]; 5.0 h after initial treatment", "value": 100, "unit": "%"},
      {"measurement": "Percent of Rats Cataleptic", "setting": "[5]; 6.0 h after initial treatment", "value": 100, "unit": "%"}
    ]}
  ]
}
